# Source: patent US10781211B2, “Spirocycle compounds and methods of making and using same” (Lundbeck La Jolla Research Center, Inc., priority 2016, dated 2020)
# Columns and labels:
# Type in all cases: in vivo
# Conditions in all cases: 5 mg/kg oral gavage
# MAGL = MAGL (Mus musculus (Mouse), UniProt O35678); assay: Mouse brain proteomes from inhibitor treated mice (oral gavage, sacrifice 4 h after administration, ABPP analysis)
# Summary of the method: (§1)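 Mice (wild-type C57Bl/6J) receive inhibitor by oral gavage, e.g. in PEG400/Ethanol/PBS (7/2/1). Each animal is killed 4 h later. Brain proteomes are prepared and analyzed by ABPP, giving % inhibition at 5 mg/kg.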
# FAAH = FAAH (Mus musculus (Mouse), UniProt O08914); assay: Mouse brain proteomes from inhibitor treated mice (oral gavage, sacrifice 4 h after administration, ABPP analysis), FAAH
# Summary of the method: as §1
# ABHD6 = ABHD6 (Mus musculus (Mouse), UniProt Q8R2Y0); assay: Mouse brain proteomes from inhibitor treated mice (oral gavage, sacrifice 4 h after administration, ABPP analysis), ABHD6
# Summary of the method: as §1
# FAAH, sequence (O08914 whole entry): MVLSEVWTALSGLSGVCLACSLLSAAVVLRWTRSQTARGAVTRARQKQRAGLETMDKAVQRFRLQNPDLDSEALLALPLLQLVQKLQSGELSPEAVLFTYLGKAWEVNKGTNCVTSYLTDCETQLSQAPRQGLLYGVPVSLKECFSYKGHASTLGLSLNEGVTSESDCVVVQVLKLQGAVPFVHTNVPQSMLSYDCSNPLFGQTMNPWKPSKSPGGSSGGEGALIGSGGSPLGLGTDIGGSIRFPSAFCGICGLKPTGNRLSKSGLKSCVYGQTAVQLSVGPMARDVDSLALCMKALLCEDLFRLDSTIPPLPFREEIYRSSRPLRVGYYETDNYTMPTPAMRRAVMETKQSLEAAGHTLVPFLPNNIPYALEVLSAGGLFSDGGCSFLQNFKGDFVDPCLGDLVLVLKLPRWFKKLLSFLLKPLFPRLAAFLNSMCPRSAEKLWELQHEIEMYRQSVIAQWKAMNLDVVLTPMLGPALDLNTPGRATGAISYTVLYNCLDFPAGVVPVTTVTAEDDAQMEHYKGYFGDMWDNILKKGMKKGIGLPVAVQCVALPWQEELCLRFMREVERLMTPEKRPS
# MAGL, sequence (O35678 whole entry): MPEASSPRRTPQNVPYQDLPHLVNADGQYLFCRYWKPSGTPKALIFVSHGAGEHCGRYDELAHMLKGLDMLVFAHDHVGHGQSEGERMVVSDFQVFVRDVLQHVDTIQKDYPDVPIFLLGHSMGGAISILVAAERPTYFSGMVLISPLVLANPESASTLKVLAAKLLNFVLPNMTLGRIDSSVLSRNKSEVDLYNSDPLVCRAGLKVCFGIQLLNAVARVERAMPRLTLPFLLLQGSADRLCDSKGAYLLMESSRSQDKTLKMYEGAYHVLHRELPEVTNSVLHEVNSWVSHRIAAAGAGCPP
# ABHD6, sequence (Q8R2Y0 whole entry): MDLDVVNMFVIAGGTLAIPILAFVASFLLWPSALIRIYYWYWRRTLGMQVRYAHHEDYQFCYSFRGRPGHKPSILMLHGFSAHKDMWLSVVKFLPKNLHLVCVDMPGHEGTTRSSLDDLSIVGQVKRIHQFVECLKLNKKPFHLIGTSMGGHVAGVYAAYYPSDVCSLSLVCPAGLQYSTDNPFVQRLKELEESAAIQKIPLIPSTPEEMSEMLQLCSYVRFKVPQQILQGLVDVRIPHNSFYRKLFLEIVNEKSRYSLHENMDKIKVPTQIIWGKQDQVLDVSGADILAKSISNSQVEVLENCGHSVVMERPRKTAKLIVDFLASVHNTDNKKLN
SMILES,MAGL % Inh 5 mg/kg (mouse) (MAGL),FAAH % Inh 5 mg/kg (mouse) (FAAH),ABHD6 % Inh 5 mg/kg (mouse) (ABHD6)
"O=C(OC(C(F)(F)F)C(F)(F)F)N1CCC2(CCCN2Cc2ccc(C(F)(F)F)c(N3CCCC3)c2)CC1 [Example 134, 1,1,1,3,3,3-Hexafluoropropan-2-yl 1-(3-(pyrrolidin-1-yl)-4-(trifluoromethyl)benzyl)-1,8-diazaspiro[4.5]decane-8-carboxylate]",### (### is ≥ 75%),# (# is < 25%),# (# is < 25%)
O=C(O)C1CCN(Cc2cc(C(F)(F)F)ccc2CN2CCCC23CCN(C(=O)OC(C(F)(F)F)C(F)(F)F)CC3)CC1 [Example 238],### (### is ≥ 75%),# (# is < 25%),# (# is < 25%)
"O=C(OC(C(F)(F)F)C(F)(F)F)N1CCC2(CCCN2Cc2ccc(Cl)cc2N2CC3COCC3C2)CC1 (stereo not drawn) [Example 108, 1,1,1,3,3,3-Hexafluoropropan-2-yl 1-(4-chloro-2-(tetrahydro-1H-furo[3,4-c]pyrrol-5(3H)-yl)benzyl)-1,8-diazaspiro[4.5]decane-8-carboxylate]",### (### is ≥ 75%),# (# is < 25%),# (# is < 25%)
O=C(O)C1CCN(c2cc(F)cc(CN3CCCC34CCN(C(=O)OC(C(F)(F)F)C(F)(F)F)CC4)c2)CC1 [Example 236],### (### is ≥ 75%),# (# is < 25%),# (# is < 25%)
"O=C(O)C1CN(c2cc(C(F)(F)F)ccc2CN2CCCC23CCN(C(=O)OC(C(F)(F)F)C(F)(F)F)CC3)CCO1 (stereo not drawn) [Example 197, 4-(2-((8-(((1,1,1,3,3,3-Hexafluoropropan-2-yl)oxy)carbonyl)-1,8-diazaspiro[4.5]decan-1-yl)methyl)-5-(trifluoromethyl)phenyl)morpholine-2-carboxylic acid]",# (# is < 25%),# (# is < 25%),# (# is < 25%)
"O=C(OC(C(F)(F)F)C(F)(F)F)N1CCC2(CCCN2Cc2ccc(Cl)c(C(F)(F)F)c2)CC1 [Example 184, 1,1,1,3,3,3-Hexafluoropropan-2-yl 1-(4-chloro-3-(trifluoromethyl)benzyl)-1,8-diazaspiro[4.5]decane-8-carboxylate]",### (### is ≥ 75%),# (# is < 25%),# (# is < 25%)
"O=C(OC(C(F)(F)F)C(F)(F)F)N1CCC2(CCCN2Cc2cc(N3CCC3)cc(C(F)(F)F)c2)CC1 [Example 47, 1,1,1,3,3,3-Hexafluoropropan-2-yl 1-(3-(azetidin-1-yl)-5-(trifluoromethyl)benzyl)-1,8-diazaspiro[4.5]decane-8-carboxylate]",### (### is ≥ 75%),# (# is < 25%),# (# is < 25%)
"CN(C)C(=O)C1CCN(c2cc(C(F)(F)F)ccc2CN2CCCC23CCN(C(=O)OC(C(F)(F)F)C(F)(F)F)CC3)CC1 [Example 16, 1,1,1,3,3,3-Hexafluoropropan-2-yl 1-(2-(4-(dimethylcarbamoyl)piperidin-1-yl)-4-(trifluoromethyl)benzyl)-1,8-diazaspiro[4.5]decane-8-carboxylate]",# (# is < 25%),# (# is < 25%),# (# is < 25%)
"O=C(OC(C(F)(F)F)C(F)(F)F)N1CCC2(CCCN2Cc2ccc(N3CCOCC3)c(C(F)(F)F)c2)CC1 [Example 129, 1,1,1,3,3,3-Hexafluoropropan-2-yl 1-(4-morpholino-3-(trifluoromethyl)benzyl)-1,8-diazaspiro[4.5]decane-8-carboxylate]",### (### is ≥ 75%),# (# is < 25%),# (# is < 25%)
"O=C(OC(C(F)(F)F)C(F)(F)F)N1CCC2(CCCN2Cc2cccc(N3CCOCC3)c2Cl)CC1 [Example 79, 1,1,1,3,3,3-Hexafluoropropan-2-yl 1-(2-chloro-3-morpholinobenzyl)-1,8-diazaspiro[4.5]decane-8-carboxylate]",### (### is ≥ 75%),# (# is < 25%),# (# is < 25%)
"O=C(OC(C(F)(F)F)C(F)(F)F)N1CCC2(CCCN2Cc2cc(Cl)cc(N3CCCC3)c2)CC1 [Example 34, 1,1,1,3,3,3-Hexafluoropropan-2-yl 1-(3-chloro-5-(pyrrolidin-1-yl)benzyl)-1,8-diazaspiro[4.5]decane-8-carboxylate]",### (### is ≥ 75%),# (# is < 25%),# (# is < 25%)
"O=C(OC(C(F)(F)F)C(F)(F)F)N1CCC2(CCCN2Cc2ccc(C(F)(F)F)cc2N2CC3COCC3C2)CC1 (stereo not drawn) [Example 97, 1,1,1,3,3,3-Hexafluoropropan-2-yl 1-(2-(tetrahydro-1H-furo[3,4-c]pyrrol-5(3H)-yl)-4-(trifluoromethyl)benzyl)-1,8-diazaspiro[4.5]decane-8-carboxylate]",### (### is ≥ 75%),# (# is < 25%),# (# is < 25%)
"CC1(C(=O)O)CN(c2cc(CN3CCCC34CCN(C(=O)OC(C(F)(F)F)C(F)(F)F)CC4)cc(C(F)(F)F)c2)CCO1 (stereo not drawn) [Example 195, 4-(3-((8-(((1,1,1,3,3,3-hexafluoropropan-2-yl)oxy)carbonyl)-1,8-diazaspiro[4.5]decan-1-yl)methyl)-5-(trifluoromethyl)phenyl)-2-methylmorpholine-2-carboxylic acid]",# (# is < 25%),# (# is < 25%),# (# is < 25%)
"O=C(O)C1CCN(c2cc(C(F)(F)F)ccc2CN2CCCC23CCN(C(=O)OC(C(F)(F)F)C(F)(F)F)CC3)CC1 [Example 121, 1-(2-((8-(((1,1,1,3,3,3-Hexafluoropropan-2-yl)oxy)carbonyl)-1,8-diazaspiro[4.5]decan-1-yl)methyl)-5-(trifluoromethyl)phenyl)piperidine-4-carboxylic acid]",### (### is ≥ 75%),# (# is < 25%),# (# is < 25%)
"O=C(OC(C(F)(F)F)C(F)(F)F)N1CCC2(CCCN2Cc2cccc(Cl)c2)CC1 [Example 61, 1,1,1,3,3,3-Hexafluoropropan-2-yl 1-(3-chlorobenzyl)-1,8-diazaspiro[4.5]decane-8-carboxylate]",### (### is ≥ 75%),### (### is ≥ 75%),# (# is < 25%)
"O=C(OC(C(F)(F)F)C(F)(F)F)N1CCC2(CCN(Cc3ccc(Cl)cc3N3CCCCC3)C2)CC1 [Example 24, 1,1,1,3,3,3-Hexafluoropropan-2-yl 2-(4-chloro-2-(piperidin-1-yl)benzyl)-2,8-diazaspiro[4.5]decane-8-carboxylate]",### (### is ≥ 75%),# (# is < 25%),# (# is < 25%)
"CS(=O)(=O)N1CCN(c2cc(Cl)ccc2CN2CCCC23CCN(C(=O)OC(C(F)(F)F)C(F)(F)F)CC3)CC1 [Example 100, 1,1,1,3,3,3-Hexafluoropropan-2-yl 1-(4-chloro-2-(4-(methylsulfonyl)piperazin-1-yl)benzyl)-1,8-diazaspiro[4.5]decane-8-carboxylate]",### (### is ≥ 75%),# (# is < 25%),# (# is < 25%)
